Patent publication US20120040974A1, “MIF MODULATORS” (YALE UNIVERSITY, priority 2008, published 2012)
Read-outs that look alike come from different tables or passages of the source.

Legend:
[1] = target: T1, MIF-CD74 binding (biotinylated recombinant human MIF / immobilized CD74 ectodomain) (Homo sapiens, UniProt P14174); assay: MIF-CD74 binding (capture) assay; conditions: for IC50: Table 1, benzooxazolones B, inhibition of MIF-CD74 binding; for Capture % Max. Inhib.: Table 3, benzothiazolones, capture assay
T1 sequence (P14174 2-115 limits assumed): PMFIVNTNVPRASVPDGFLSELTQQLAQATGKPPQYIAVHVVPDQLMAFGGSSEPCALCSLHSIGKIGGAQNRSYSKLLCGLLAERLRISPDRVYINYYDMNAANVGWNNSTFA
Experimental: This allows measurement of the inhibition or enhancement of the binding of MIF to its receptor induced by an addend.
Incubate at 4° C. overnight. Wash the plate 4 times with 250 μl/well TTBS and add 100 μl/well of superblock (Pierce, Ill.). Incubate at 4° C. overnight. Remove the superblock and add mixture of compound and biotin-labeled recombinant human MIF incubated at 4° C. overnight. (Each compound was pre-incubated at various concentrations with 2 ng/μl 0.2 μM biotin-MIF for 2 hours at room temperature in the dark). After washing the plate 4 times with 250 μl/well TTBS, 60 μl/well of Strepavidin-AP (R&D Systems) was added and incubated for 1 hr at room temperature in the dark. Wells were then washed as before and 60 μl/well of PNPP (Sigma) was added, allowing the color to develop in the dark at room temperature and then read at OD405 nm.

[2] = target: T2, Human MIF tautomerase activity (HPP) (Homo sapiens, UniProt P14174); assay: HPP tautomerase assay; format: biochemical; conditions: for Emax: read-out: HPP Max. Inhib.
T2 construct: made in house
T2 sequence (P14174 2-115 limits assumed): T1 sequence (P14174 2-115 limits assumed)
Experimental: The HPP assay used was adapted to the microtiter plate format. […] Dilutions of the enzyme were prepared in 50 mM sodium phosphate buffer, 1 mM EDTA, pH 6.5. HPP was obtained from Aldrich. A stock solution of 60 mM HPP in ethanol is prepared and kept for maximally 4 hours on ice. The working solution (600 μM) of the substrate was prepared by diluting an aliquot of the stock solution with 50 mM sodium phosphate buffer, 1 mM EDTA, pH 6.5. […] Inhibitor and enzyme solutions were pipetted manually using an Eppendorf 12-channel pipette. Addition of substrate to start the reaction was performed with an Igel 96 pipetting station (OpalJena, Jena, Germany), which allows simultaneous addition of fluid to all 96 wells of the plates. Optical density (OD) was determined using a SPECTRAmax 250 reader (Molecular Devices). The reader was operated with the SoftmaxPro 2.6.1 software. Assay: Three wells of the microtiter plates were filled with buffer only, to allow for blanking. […] The last step was performed using the 96-channel pipetting device. The plate was then immediately (i.e. within a few seconds) transferred manually to the SPECTRAmax 250 reader and the optical density was determined (310 nm). From the data obtained, IC50 values were calculated using Excel® and XLfit® software.

[3] = system: ovarian cancer cell line; assay: Growth inhibition of an ovarian cancer cell line; format: cell-based
From the text: KSP inhibitor ARRY-520 is used as a substitute for Paclitaxel in Type I ovarian cancer cells. J Transl Med. 7:63.

[4] = system: MIF-dependent ERK1/2 phosphorylation; assay: MIF-dependent signal transduction in cells (ERK1/2 phosphorylation); format: cell-based; conditions: compared to isoxazoline-1
Experimental: Two additional assays were performed on compounds according to the present invention. In the first, MIF-dependent signal transduction in cells as evidenced by a reduction in ERK1/2 phosphorylation and its inhibitory action is compared to the known small molecule MIF antagonist, isoxazoline-1 following the assay reported in Leng L., Metz C, Fang Y, Xu J, Donnelly S, Baugh J, Delonery T, Chen Y, Mitchell R A, and Bucala R. 2003. MIF Signal Transduction Initiated by Binding to CD74. J Exp Med 197, 1467-1476.

[5] = Table 1, MIF tautomerase activity, HPP substrate

In the case of `COc1cccc(Cn2c(=O)oc3ccc(CO)cc32)c1` [Compound 4, 5-hydroxymethyl-3-(3-methoxy-benzyl)-3H-benzooxazol-2-one], the IC50 [1] is reported as 500 µM.

Compound `N#Cc1nc2ccccc2n1Cc1ccccc1` [Compound 18, 1-Benzyl-1H-benzoimidazole-2-carbonitrile] has an Emax ([2]; Table 2, other series) of 36%.

`O=c1oc2ccc(F)cc2n1Cc1ccccc1` [Compound 8] showed an IC50 [2, 5] of 1 µM.

`COc1ccccc1Cn1c(=O)oc2ccc(F)cc21` [Compound 10] showed an Emax ([2]; Table 1, maximal inhibition of HPP tautomerase activity) of 17%.

For `O=c1c2cc(C(F)(F)F)ccc2sn1-c1ccc(Cl)cc1` [Compound 35], the “Capture % Max. Inhib.” value [1] was 12% and the IC50 ([2]; Table 3, benzothiazolones) was 8.5 µM.

`O=c1c2ccc(Br)cc2sn1-c1ccc(Cl)cc1` [Compound 36] was tested, and the “Capture % Max. Inhib.” value [1] was 10%.

`O=c1oc2cc(O)ccc2n1Cc1ccccc1` [Compound 14] gave an IC50 [1] greater than 1000 µM.

`COc1cccc(Cn2c(=O)oc3ccc(OC)cc32)c1` [Compound 3, 5-methoxy-3-(3-methoxy-benzyl)-3H-benzooxazol-2-one] gave an IC50 [1] of 200 µM.

For `c1ccc(Cn2c(-c3cscn3)nc3ccccc32)cc1` [Compound 17, 4-(1-benzyl-1H-benzo[d]imidazol-2-yl)thiazole], the Emax ([2]; Table 2, other series) was 40%.

With `O=c1c2ccc(F)cc2sn1-c1ccc(Cl)cc1` [Compound 25] the “activity in the capture assay (MIF-CD74 binding), in words” value (“activity in the capture assay” below) [1] was “agonist behavior”.

With `COc1ccccc1-n1sc2ccc(Cl)cc2c1=O` [Compound 31] the “Capture % Max. Inhib.” value [1] was 7%.

With `N#Cc1ccc2c(=O)n(-c3ccc(Cl)cc3)sc2c1` [Compound 37] the “Capture % Max. Inhib.” value [1] was 16%.

Compound `Cc1ccc2oc(=O)n(Cc3ccccc3)c2c1` [Compound 1] has an IC50 [2, 5] of 0.5 µM.

With `COc1cccc(Cn2c(=O)oc3ccc(C)cc32)c1` [Compound 5] the IC50 [1] was 300 µM.

In the case of `O=c1c2cc([N+](=O)[O-])ccc2sn1-c1ccc(Cl)cc1` [Compound 34], the “Capture % Max. Inhib.” value [1] is reported as 11%.

With `O=c1c2ccc(F)cc2sn1-c1cccc(CO)c1` [Compound 29] the “Capture % Max. Inhib.” value [1] was 8% and the IC50 ([2]; Table 3, benzothiazolones) was 4.8 µM.

With `O=c1c2cc(F)ccc2sn1-c1cccc(O)c1` [Compound 32] the “Capture % Max. Inhib.” value [1] was 13%.

In the case of `COC(=O)CC1CC(c2ccc(O)cc2)=NO1` (centres unmarked) [ISO-1, reference compound], the “activity in the capture assay” value [1] is reported as “inactive” and the “activity in the HPP tautomerase assay, in words” value [2] is reported as “inactive”.

With `CC(=O)OCc1cccc(-n2sc3cc(F)ccc3c2=O)c1` [Compound 33] the “Capture % Max. Inhib.” value [1] was 12%.

In the case of `Ic1cc(-c2ccccc2)ncn1` [Compound 4-IPP, 4-iodo-6-phenylpyrimidine, reference compound], the “activity in the capture assay” value [1] is reported as “inactive” and the IC50 [1] is reported as greater than 10000 µM.

`O=c1c2cc(F)ccc2sn1-c1ccc(Cl)cc1` [Compound 30] was tested, and the “Capture % Max. Inhib.” value [1] was 7% and the IC50 ([2]; Table 3, benzothiazolones) was 2.8 µM.

`Cc1ccc2oc(=O)n(Cc3cccc(O)c3)c2c1` [Compound 098] was tested, and the “inhibition of growth of an ovarian cancer cell line, in words” value [3] was “significant inhibitory action” and the “inhibition of MIF-dependent signal transduction (reduction in ERK1/2 phosphorylation), in words” value [4] was “significant inhibitory action”.

`O=C(c1cc2ccccc2o1)c1cc2ccccc2o1` [Compound 20, bisbenzofuran-2-yl methanone] was tested, and the IC50 ([2]; Table 2, other series) was 510 µM.
